# Results: patent publication EP4741387A1, “CRYSTAL FORM OF BIPYRIMIDINE COMPOUND, PREPARATION METHOD THEREFOR AND USE THEREOF” (Jiangsu Yahong Meditech Co., Ltd., priority 2023, dated 2025)
# Marks after values point to notes of the source that are not given here.
# Key:
# [1] = Trituration study of crystal form I (XRPD); format: physicochemical; conditions: manual trituration 1 min or 3 min, without solvent, with water or ethanol
# Protocol: Approximately 50 mg of crystal form I was manually triturated in a mortar using the condition shown in Table 5, and XRPD was carried out to investigate the crystal form of the triturated solid.
# [2] = Stability subjected to temperature and humidity (LC analysis); format: physicochemical; conditions: solid powder, 30 days
# Protocol: (§1) The HPLC for solubility and stability is carried out using a Phenomenex Luna C18 (2), 3 µm, 2X50 mm chromatographic column.
# 1 to 3 mg of crystal form I solid powder was weighed, and placed at 60°C or 60°C / 75% RH for 30 days. Samples were collected for LC study and analysis.
# [3] = Solubility study of crystal form I; format: physicochemical; conditions: pH 7.4 phosphate buffer (37°C for 24 hours)
# [4] = Stability subjected to light (LC analysis); format: physicochemical
# Protocol: as §1
# An appropriate amount of crystal form I solid powder was weighed, and placed in a light-stabilized chamber to irradiate under ICH light intensity conditions (at least greater than 1.2*10^6 Lux*h, illuminance of 4500±500 Lux, and intensity of 200 w*hr/m^2). Samples were collected for LC study and analysis.
# [5] = Dynamic vapor sorption (DVS); format: physicochemical
# [6] = Solubility study of crystal form I; format: physicochemical; conditions: for solubility: thermodynamic from solid
# Protocol: as §1
# 50 µL or 100 µL of the solvent shown in Table 6 was gradually added to 2 mg of crystal form I, and the resulting mixture was manually shaken, vortexed, or sonicated to dissolve. Addition of solvent was stopped if the concentration was below 1 mg/mL. The solubility was calculated based on the sample amount and the total amount of solvent added.
# [7] = Stability subjected to temperature and humidity (XRPD of crystal form); format: physicochemical; conditions: solid powder, 30 days
# Protocol: The instrument is Shimadzu XRD-6000, and the samples are scanned according to the following parameters: The ray source is Cu~Kα target (1.54056 Å).
# In addition, an appropriate amount of crystal form I solid powder was weighed, and placed under stability conditions (40°C / 75% RH, 60°C / 75% RH) for 30 days. Samples were collected for XRPD.
# [8] = Stability to forced degradation (oxidative and alkali); format: physicochemical; conditions: 1 mg/mL in 90% acetonitrile
# Protocol: as §1
# 3 mg of crystal form I was weighed to formulate a stock solution of 1 mg/mL with 3 mL of 90% acetonitrile. Stability subjected to oxidative degradation (degraded with 3% H2O2 at 40°C for 1.5 hours) and alkali degradation (degraded with 0.1 N NaOH at 40°C for 2 hours) was studied.
# [9] = Pharmacokinetic study of intragastric administration of suspension; format: in vivo; conditions: male SD rats, result in words
# Protocol: Crystal form I was used in pharmacokinetic studies in rats. Twelve male SD rats were weighed before administration, and housed using standard feeding methods. Animals were housed in standard cages with free access to food and water during the study. Rats were intragastrically administered the suspension of crystal form I. 40 µL of blood was collected at each sampling point, and placed in an EDTA-containing anticoagulant tube. After centrifugation, 20 µL of plasma was collected. All samples were immediately frozen in a -80°C refrigerator after collection.
smiles,measurement,setting,value
"COc1cnc(-c2c(OC)ncnc2C2CC2)nc1NCC12CCC(c3nc(C(F)(F)F)cn3C)(CC1)CC2 [crystal form I, 4'-cyclopropyl-5,6'-dimethoxy-N-((4-(1-methyl-4-(trifluoromethyl)-1H-imidazol-2-yl)bicyclo[2.2.2]octan-1-yl)methyl)-[2,5'-bipyrimidin]-4-amine]",crystal form after trituration (XRPD),[1],all crystal form I
same,change of content of the main component,[2]; 60°C / 75% RH,less than 0.2%
same,change of content of the main component,[2]; 60°C,less than 0.2%
same,solubility at 24 h,"[3]; aqueous buffer, thermodynamic from solid",0.31 mg/mL
same,solubility,[3],0.31 * mg/mL
same,photostability,"[4]; ICH light conditions, result in words",photostable
same,change of content of the main component,"[4]; solid powder, ICH light intensity conditions (>1.2*10^6 Lux*h, 200 w*hr/m^2)",less than 0.2%
same,hygroscopicity,"[5]; DVS, result in words",non-hygroscopic
same,crystal form after DVS (XRPD),[5]; XRPD before and after DVS,did not change
same,water absorption rate,"[5]; from 0% RH to 95% RH, 25°C",0.02%
same,solubility,"[6]; acetone, organic solvent or mixture",> 34.4 mg/mL
same,solubility,"[6]; acetonitrile, organic solvent or mixture",14.2 to 28.4 mg/mL
same,solubility,"[6]; acetonitrile-water 9:1, organic solvent or mixture",> 32.4 mg/mL
same,solubility,"[6]; ethyl acetate, organic solvent or mixture",14.9 to 29.8 mg/mL
same,solubility,"[6]; methanol, organic solvent or mixture",> 19.2 mg/mL
same,solubility,"[6]; methanol-water 1:1, aqueous with cosolvent or surfactant or cyclodextrin",< 0.895 mg/mL
same,solubility,"[6]; methanol-water 9:1, organic solvent or mixture",> 33.4 mg/mL
same,solubility in organic solvent,"[6]; organic solvent, result in words",good solubility
same,solubility,"[6]; pH 1.2 hydrochloric acid solution, pH 1.2, simulated gastric fluid",8.45 to 16.9 mg/mL
same,crystal form change (XRPD),[7]; 40°C / 75% RH,did not change its crystal form
same,crystal form change (XRPD),[7]; 60°C / 75% RH,did not change its crystal form
same,degradation,[8]; alkali degradation: 0.1 NaOH at 40°C for 2 hour,only slight degradation
same,degradation,[8]; oxidative degradation: 3% H2O2 at 40°C for 1.5 hours,only slight degradation
same,bioavailability,[9],high
same,exposure,[9],high
same,plasma concentration,[9],high
